Results from US9789096B2, “Methods and compositions for selective and targeted cancer therapy” (Board of Regents of the University of Texas System, priority 2013, dated 2017).
Read-outs that look alike come from different tables or passages of the source.

Key:
HBEC30KT = assay: Cell viability (ATP, Cell Titer Glo, 4 days), HBEC30KT; type: cell-based, human; conditions: Homo sapiens
H1155 = assay: Cell viability dose-response, H1155; type: cell-based; conditions: Homo sapiens, NCI-H1155
Method: (§1) FIG. 6A. […] Cell viability is plotted vs. compound concentration. Compound was added to cells plated at 15% confluence in 96-well plates in RPMI-1640 media supplemented with 5% Fetal Bovine Serum and 2 mM L-Glutamine. After 4 days of incubation, ATP levels were measured using Cell Titer Glo (Promega). Data are presented as the average of 2 replicates ±SEM.
(§2) Selectivity may be measured by the half maximal inhibitory concentration (IC50), which, as used herein, is a measure of the effectiveness of a compound in killing cells. This quantitative measure indicates how much of a particular compound is needed to kill a particular cell population by half (e.g., as indicated by the amount of ATP). […] The IC50 can be determined by constructing a dose-response curve. The lower the IC50, the higher the potency, and the greater the difference between IC50 values for different cell lines (e.g., sensitive lines vs. insensitive lines, and sensitive lines vs. normal lines) the greater the selectivity. […]
(§3) With this information, we synthesized and tested a series of small molecules derived in conception from the oxalamide and chromone scaffold including N-acyl ureas, as shown in Tables 6-8. Each compound was tested in a 12-point dose-response study starting at 50 micromolar and decreasing in 3-fold increments to sub-nanomolar concentrations, in duplicate. Additionally, one or more additional cell line was tested in the same way.

H1395 = assay: Cell viability dose-response, H1395; type: cell-based; conditions: Homo sapiens, NCI-H1395
Method: as §1, §2, §3

H1819 = assay: Cell viability dose-response, H1819; type: cell-based, human; conditions: Homo sapiens
Outline: (§4)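 Viability read as total ATP (Cell Titer Glo) following 4 days' compound exposure, with IC50 derived from dose-response curves. Duplicate 12-point series, top concentration 50 micromolar with 3-fold steps, on cells seeded at 15% confluence in RPMI-1640, 5% FBS, 2 mM L-glutamine.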

H1993 = assay: Cell viability dose-response, H1993; type: cell-based; conditions: Homo sapiens, NCI-H1993
Method: as §1, §2, §3

H2009 = assay: Cell viability dose-response, H2009; type: cell-based, human; conditions: Homo sapiens, NCI-H2009
Outline: (§5)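 Steps: seed cells to 15% confluence in RPMI-1640 supplemented with 5% fetal bovine serum and 2 mM glutamine; add compound across a concentration range; incubate 4 days; measure total ATP with CellTiter-Glo. IC50 is derived from the curve.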

H2073 = assay: Cell viability dose-response, H2073; type: cell-based, human; conditions: Homo sapiens
Outline: as §5

H2122 = assay: Cell viability dose-response, H2122; type: cell-based, human; conditions: Homo sapiens
Outline: as §4

H460 = assay: Cell viability dose-response, H460; type: cell-based; conditions: Homo sapiens, NCI-H460
Method: as §1, §2, §3

HCC366 = assay: Cell viability dose-response, HCC366; type: cell-based; conditions: Homo sapiens, 12-point dose-response starting at 50 micromolar, 3-fold increments, in duplicate, read-out: toxicity data, HCC366
Method: as §1, §2, §3

HCC4017 [1] = assay: Cell viability dose-response, HCC4017; type: cell-based, human; conditions: Homo sapiens
Outline: as §5

HCC44 = assay: Cell viability dose-response, HCC44; type: cell-based, human; conditions: Homo sapiens
Outline: as §5

HCC95 = assay: Cell viability dose-response, HCC95; type: cell-based; conditions: Homo sapiens
Method: as §1, §2, §3

H2122 cells = assay: Metabolism by sensitive cells (HPLC/MS/MS); type: in vitro ADME, human
Method: (§6) FIGS. 9A-9D. Selective toxins selectively cross-link to SCD1 in sensitive cells and are selectively metabolized in sensitive cells. FIG. 9A. 12 NSCLC cell lines were incubated with SW208108 and processed as described in FIG. 7. […] FIG. 9B. […] FIG. 9C. […] Demethylation is the anticipated mode of metabolism. FIG. 9D. A representative benzothiazole is demethylated by sensitive cell lines. […] Values in FIGS. 9C and 9D were obtained by tandem HPLC/MS/MS.
(§7) In this context, 12 different NSCLC cell lines were treated with SW208108, lysed and clicked to a dye as previously described. […] To understand how SW208108 could selectively cross-link to SCD1 within some cell lines that expressed the enzyme but not other cell lines that expressed the same enzyme, we investigated the stability of a representative oxalamide in the presence of a sensitive and insensitive cell line. […] Similarly, a representative benzothiazole was metabolized by H2122 cells through, at least in part, the loss of the O-methyl group (FIG. 9D).

HCC4017 [2] = assay: Metabolism by insensitive cells (HPLC/MS/MS); type: in vitro ADME, human
Method: as §6, §7

[3] = system: 12 lung adenocarcinoma cell lines; assay: Proliferation of the panel of 12 lung adenocarcinoma cell lines; type: cell-based, human
Method: as §1
To discover selective agents, twelve cell lines of diverse genotype were selected for analysis. 108 lung cancer cell lines were initially clustered into six groups based on mRNA expression of genes that underwent frequent copy number variation. Two cell lines were chosen from each group for high throughput chemical screening. All 12 of the chosen cell lines were derived from lung adenocarcinomas, eliminating both lineage and histology as confounders. None of the cell lines chosen for screening harbored EGFR mutations or ALK rearrangements, so that the final set represented a collection of diverse lung adenocarcinoma genotypes for which there are no targeted therapy.
The proliferative impact of each compound in the library was assayed by analyzing total ATP four days after administration of 2.5 μM in a single well. This first pass yielded 15,843 toxins defined as a compound where ATP levels were […] three standard deviations below the mean for at least one cell line. For each of these putative toxins, the average effect on proliferation was retested on each cancer cell line and a non-cancerous immortalized HBEC line (control), yielding a confirmation dataset.
(§8) In addition, N-acyl benzothiazoles was also discovered, such as 4-amino-N-(6-methoxybenzo[d]thiazol-2-yl)benzamide (ATB). We compared the proliferation of 12 lung adenocarcinoma cell lines and three HBEC lines after the addition of ATB.
(§9) We subsequently synthesized various derivatives that are both selective and potent (Tables 1 and 2). One leading candidate is a benzothiazole, SW202857, that inhibits proliferation in three of 12 adenocarcinoma cell lines at concentrations less than 10 nM.

[4] = system: 3 human bronchial epithelial (HBEC) cell lines; assay: Vitality of human bronchial epithelial (HBEC) cell lines; type: cell-based; conditions: at 10 μM
Method: as §8, §9

[5] = system: about 300 protein kinase enzymes; assay: Kinase inhibition assays (EMD Millipore); type: biochemical, human
Method: (§10) Specifically, kinase inhibition assays were performed at EMD Millipore at 1, 10 and 100 nM SW202857 and individually optimized concentrations of ATP. […] Listed kinases are the human enzyme unless indicated: mouse (m), rat (r), yeast (y).

GSK3beta = target: T1, GSK3beta (Homo sapiens, UniProt P49841); assay: Kinase inhibition assay (EMD Millipore), GSK3beta; type: biochemical; conditions: 100 nM
T1 construct: purchased EMD Millipore
T1 sequence (P49841 whole entry): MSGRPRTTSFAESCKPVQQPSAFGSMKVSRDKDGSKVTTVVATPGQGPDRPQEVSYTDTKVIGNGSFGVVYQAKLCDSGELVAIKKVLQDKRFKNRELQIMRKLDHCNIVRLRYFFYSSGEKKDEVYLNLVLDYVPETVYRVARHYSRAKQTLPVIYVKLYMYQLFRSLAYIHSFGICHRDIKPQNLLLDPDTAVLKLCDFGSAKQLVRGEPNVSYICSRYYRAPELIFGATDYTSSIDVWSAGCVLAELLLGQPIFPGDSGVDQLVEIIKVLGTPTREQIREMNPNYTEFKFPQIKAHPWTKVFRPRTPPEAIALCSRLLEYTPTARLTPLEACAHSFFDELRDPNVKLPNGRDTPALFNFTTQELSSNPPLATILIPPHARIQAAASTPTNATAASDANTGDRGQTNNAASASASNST
Method: as §10

[6] = Stability in mouse liver S9 fractions; type: in vitro ADME
[7] = ADME for xenograft studies; type: in vivo
H2122 xenografts = assay: In vivo efficacy, H2122 xenografts in NOD/SCID mice; design: species or system mouse; conditions: 25 mg/kg IP twice daily
Method: (§11) FIG. 6C. […] NOD/SCID mice were injected with either H2122 (sensitive) or H1155 (insensitive) cells subcutaneously on day 0. When tumors reached 200 cubic mm, treatment with SW203668 (listed as A2) or vehicle was initiated (as indicated by the arrow) with twice daily doses of 25 mg/kg, IP. Tumor size was measured every 3 days for the duration of the study. Data are plotted as mean±SEM; n=12 for each group.

H1155 xenografts = assay: In vivo efficacy, H1155 xenografts in NOD/SCID mice; design: species or system mouse; conditions: 25 mg/kg IP twice daily
Method: as §11

[8] = NCI-H2122, Tables 3 and 4, read-out: IC50 (uM) vs indicated non-small cell lung cancer cell line H2122

COc1ccc(CCNC(=O)C(=O)Nc2cccc(Cl)c2)cc1 [SW027950]
IC50 (HBEC30KT; 12-point dose-response starting at 50 micromolar, 3-fold increments, in duplicate, read-out: toxicity data, HBEC30KT): 34 µM
IC50 (H1155; 12-point dose-response starting at 50 micromolar, 3-fold increments, in duplicate, read-out: toxicity data, H1155): 50 µM
IC50 (H1395; 12-point dose-response starting at 50 micromolar, 3-fold increments, in duplicate, read-out: toxicity data, H1395): 50 µM
IC50 (H1819; NCI-H1819, 12-point dose-response starting at 50 micromolar, 3-fold increments, in duplicate, read-out: toxicity data, H1819): ≥ 50 µM
IC50 (H1993; 12-point dose-response starting at 50 micromolar, 3-fold increments, in duplicate, read-out: toxicity data, H1993): 50 µM
IC50 (H2009; 12-point dose-response starting at 50 micromolar, 3-fold increments, in duplicate, read-out: toxicity data, H2009): 20.3 µM
IC50 (H2073; NCI-H2073, 12-point dose-response starting at 50 micromolar, 3-fold increments, in duplicate, read-out: toxicity data, H2073): 1.4 µM
IC50 (H2122; NCI-H2122, 12-point dose-response starting at 50 micromolar, 3-fold increments, in duplicate, read-out: toxicity data, H2122): 0.35 µM
IC50 (H460; 12-point dose-response starting at 50 micromolar, 3-fold increments, in duplicate, read-out: toxicity data, H460): 3.9 µM
IC50 (HCC366): 50 µM
IC50 (HCC4017 [1]; HCC4017, 12-point dose-response starting at 50 micromolar, 3-fold increments, in duplicate, read-out: toxicity data, HCC4017): ≥ 50 µM
IC50 (HCC44; HCC44, 12-point dose-response starting at 50 micromolar, 3-fold increments, in duplicate, read-out: toxicity data, HCC44): 34 µM
IC50 (HCC95; 12-point dose-response starting at 50 micromolar, 3-fold increments, in duplicate, read-out: toxicity data, HCC95): 0.35 µM
metabolism by sensitive H2122 cells (H2122 cells): metabolized
stability in the presence of an insensitive cell line (HCC4017 [2]): completely stable

COc1ccc2nc(NC(=O)c3ccc(C(=O)c4ccccc4)cc3)sc2c1 [SW202857-1, 4-benzoyl-N-(6-methoxybenzo[d]thiazol-2-yl)benzamide]
IC50 (HBEC30KT; Tables 3 and 4, read-out: HBEC30KT IC50): 22.8 µM
IC50 (H1155; Tables 3 and 4, read-out: IC50 (uM) vs indicated non-small cell lung cancer cell line H1155): 22.3 µM
IC50 (H1395; Tables 3 and 4, read-out: IC50 (uM) vs indicated non-small cell lung cancer cell line H1395): 31.8 µM
IC50 (H1819; NCI-H1819, Tables 3 and 4, read-out: IC50 (uM) vs indicated non-small cell lung cancer cell line H1819): 42.7 µM
IC50 (H1993; Tables 3 and 4, read-out: IC50 (uM) vs indicated non-small cell lung cancer cell line H1993): 21.3 µM
IC50 (H2009; Tables 3 and 4, read-out: IC50 (uM) vs indicated non-small cell lung cancer cell line H2009): 3.16 µM
IC50 (H2073; NCI-H2073, Tables 3 and 4, read-out: IC50 (uM) vs indicated non-small cell lung cancer cell line H2073): 0.0185 µM
IC50 (H2122; NCI-H2122, Table 9, competitor, read-out: IC50 to H2122 cells): 0.00923 µM
IC50 (H2122; [8]): 0.00839 µM
IC50 (H460; Tables 3 and 4, read-out: IC50 (uM) vs indicated non-small cell lung cancer cell line H460): 0.046 µM
IC50 (HCC4017 [1]; HCC4017, Tables 3 and 4, read-out: IC50 (uM) vs indicated non-small cell lung cancer cell line HCC4017): 32.6 µM
IC50 (HCC44; HCC44, Tables 3 and 4, read-out: IC50 (uM) vs indicated non-small cell lung cancer cell line HCC44): 0.0236 µM
IC50 (HCC95; Tables 3 and 4, read-out: IC50 (uM) vs indicated non-small cell lung cancer cell line HCC95): 10.8 µM
toxic concentration against four sensitive cell lines ([3]; four sensitive cell lines): less than 50 nM
concentration that inhibits proliferation in three of 12 adenocarcinoma cell lines ([3]; three sensitive lines): less than 10 nM
toxic effect on the other 9 adenocarcinoma cell lines ([3]; up to 10 μM): no toxic effect
vitality of 3 human bronchial epithelial (HBEC) cell lines [4]: nor does it affect the vitality
inhibition of about 300 protein kinase enzymes in vitro ([5]; 0.10 μM): failed to inhibit
inhibition, all other kinases ([5]; highest concentration (100 nM)): ≤ 15%
inhibition at 0.1 µM (GSK3beta): 21%
stability in the presence of mouse liver S9 fractions [6]: chemically stable
metabolism by sensitive H2122 cells (H2122 cells): demethylated

COc1ccc2nc(NC(=O)c3ccc(C(N)c4ccccc4)cc3)sc2c1 (centres unmarked) [SW203668]
IC50 (H2122; [8]): 0.035 µM
absorption, distribution, metabolism, and excretion (ADME) [7]: appropriate absorption, distribution, metabolism, and excretion
tumor growth inhibition in H2122 xenografts (H2122 xenografts): selective toxicity
tumor growth inhibition in H1155 xenografts (H1155 xenografts): but not H1155 xenografts
